Test results: patent US20030124652A1, “Methods of producing high mannose glycoproteins in complex carbohydrate deficient cells” (NOVAZYME PHARMACEUTICALS, INC., priority 2001, published 2003)

System: CHO cell line (GAA LEC clone R3.3) expressing rh-GAA
Experiment: Phosphorylation efficiency of rh-GAA from cultures containing mannosidase inhibitors ([32P] incorporation by GlcNAc phosphotransferase)
Format: cell-based, Chinese Hamster
Settings: increasing amounts of inhibitor alone vs no mannosidase inhibitors (FIG. 1)
Experimental: To determine whether mannosidase inhibitors can increase phosphorylation efficiency of recombinant human acid alpha glucosidase (rh-GAA), a CHO cell line (GAA LEC clone R3.3) expressing rh-GAA was grown in various conditions that contained different amounts of the following mannosidase the inhibitors: Kifunensin; Deoxymannojirimycin (DMJ); or combinations of both inhibitors. Conditioned media from each inhibitor condition containing 6 μg of GAA (based on GAA activity assay) was then incubated with purified bovine GlcNAc phosphotransferase (Pt'ase) and [^32P]UDP-GlcNAc. Subsequently, each phosphorylation reaction was loaded onto a concanavalin A-sepharose column to capture glycoproteins, e.g., rh-GAA. The concanavalin A-sepharose was washed and the resin was counted in a liquid scintillation counter to measure the ^32P incorporation, i.e., the extent of phosphorylation on rh-GAA. The results are summarized in Table 1 below and FIGS. 1 and 2.

OC[C@H]1NC[C@@H](O)[C@@H](O)[C@@H]1O [DMJ only, deoxymannojirimycin]
effect on the phosphorylation reaction of rh-GAA (in words): greatly enhance the phosphorylation reaction

O=C1N[C@@H]2[C@@H](O)[C@@H](O)[C@H](O)[C@@H](CO)N2C1=O [Kifunensin only, kifunensine]
effect on the phosphorylation reaction of rh-GAA (in words): greatly enhance the phosphorylation reaction
